Assay results reported in US20250049709A1, “ZIPRASIDONE FORMULATIONS” (BELOTECA, INC., priority 2021, published 2025).
Converted amounts (≈) assume the structure as drawn. Counter-ions that a name gives are not always drawn. Like-named read-outs stand apart in the source and are kept apart here.

Tests used:
[1] = cited from earlier work
[2] = pH value of 1% w/v aqueous ziprasidone suspension; type: physicochemical; details: 1% w/v aqueous ziprasidone suspension at 25° C.
Protocol: This pH value corresponds to a pH value of ziprasidone in water determined on a 1% w/v aqueous ziprasidone suspension at 25° C.

pH value of ziprasidone in water [2]	Molecule	solubility in water [1]	solubility in water ([1]; 25° C.)
–	O=C1Cc2cc(CCN3CCN(c4nsc5ccccc45)CC3)c(Cl)cc2N1 [ziprasidone hydrochloride]	7.18 µg/mL	–
~3.2	O=C1Cc2cc(CCN3CCN(c4nsc5ccccc45)CC3)c(Cl)cc2N1 [ziprasidone]	–	2130 µg/mL (≈ 5.16 mM)
–	ziprasidone mesylate trihydrate	13 µg/mL	–
